Measured values published in patent US20200407370A1, “PEPTIDYLARGININE DEIMINASE INHIBITOR AND USE THEREOF” (Nanjing Transthera Biosciences Co., Ltd., priority 2018, published 2020).
Read-outs that look alike come from different tables or passages of the source.

Legend:
[1] = Liver microsomal stability in canine; type: in vitro ADME; conditions: dog; canine liver microsomes, 0.5 mg protein/mL, 1 μM compound, 37° C.
Description: (§1) Experimental Example 2: Evaluation on Liver Microsomal Stability of the Compound Disclosed Herein in Human/Canine
(§2) An appropriate amount of the compound was precisely weighed and dissolved in DMSO to prepare a 5.0 mM stock solution. 5.0 mM stock solution was diluted to 1.0 mM with DMSO, and then diluted with water to 10 μM, serving as a compound working solution for later use (DMSO content in the reaction system: 0.1% v/v).
(§3) • (1) The liver microsomes (20 mg protein/mL) were taken from a −80° C. refrigerator, pre-incubated on a 37° C. water bath thermostatic oscillator for 3 min, and thawed for use. • (2) A mixed incubation system solution (without compounds or β-NADPH) was prepared according to the proportion of “composition of the incubation system” described above and pre-incubated on a 37° C. water bath thermostatic oscillator for 2 min. • (3) Control group (without β-NADPH): 30 μL of water and 30 μL of compound working solution (10 μM) were added to 240 μL of the mixed incubation system solution in step (2), and the mixture was vortexed for 30 s and mixed. The total volume of the mixture was 300 μL. The sample was duplicated. The reaction solution was placed on a 37° C. water bath thermostatic oscillator for incubation, and timing was started. Samples were collected at 0 min and 60 min. • (4) Sample group: 70 μL of β-NADPH solution (10 mM) and 70 μL of compound working solution (10 μM) were added to 560 μL of the mixed incubation system solution in step (2), and the total volume of the mixture was 700 μL. The mixture was vortexed for 30 s and mixed. The sample was duplicated. The reaction solution was placed on a 37° C. water bath thermostatic oscillator for incubation, and timing was started. Samples were collected at 0 min, 5 min, 10 min, 20 min, 30 min and 60 min after timing. • (5) The reaction solution was vortexed for 3 min, and centrifuged at 12,000 rpm for 5 min. • (6) 50 μL of the supernatant was added to 150 μL of water, and the resulting solution was vortexed and mixed before LC/MS/MS analysis.
(§4) The half-life (t1/2) and clearance (Cl) were calculated using the following first-order kinetic formula:
(§5) Vd=1/protein content in liver microsomes
(§6) Note: k denotes the slope of the logarithm of the remaining amount of a compound vs. time, Vd denotes apparent volume of distribution, C0 denotes drug concentration at 0 h, Ct denotes drug concentration at time t, t denotes time, e denotes natural number, and Clint denotes intrinsic clearance.

[2] = molecular target: T1, Peptidylarginine deiminase 4 (PAD4) (Homo sapiens, UniProt Q9UM07); experiment: Assay of enzyme-inhibiting activity (PAD4, FAM-AcH4(1-5) peptide, Caliper detection); type: biochemical; conditions: 10 nM PAD4, 5 μM peptide, 0.1 mM Ca2+, pH 8.0
T1 construct: purchased Cayman 10500
T1 sequence (Q9UM07 whole entry): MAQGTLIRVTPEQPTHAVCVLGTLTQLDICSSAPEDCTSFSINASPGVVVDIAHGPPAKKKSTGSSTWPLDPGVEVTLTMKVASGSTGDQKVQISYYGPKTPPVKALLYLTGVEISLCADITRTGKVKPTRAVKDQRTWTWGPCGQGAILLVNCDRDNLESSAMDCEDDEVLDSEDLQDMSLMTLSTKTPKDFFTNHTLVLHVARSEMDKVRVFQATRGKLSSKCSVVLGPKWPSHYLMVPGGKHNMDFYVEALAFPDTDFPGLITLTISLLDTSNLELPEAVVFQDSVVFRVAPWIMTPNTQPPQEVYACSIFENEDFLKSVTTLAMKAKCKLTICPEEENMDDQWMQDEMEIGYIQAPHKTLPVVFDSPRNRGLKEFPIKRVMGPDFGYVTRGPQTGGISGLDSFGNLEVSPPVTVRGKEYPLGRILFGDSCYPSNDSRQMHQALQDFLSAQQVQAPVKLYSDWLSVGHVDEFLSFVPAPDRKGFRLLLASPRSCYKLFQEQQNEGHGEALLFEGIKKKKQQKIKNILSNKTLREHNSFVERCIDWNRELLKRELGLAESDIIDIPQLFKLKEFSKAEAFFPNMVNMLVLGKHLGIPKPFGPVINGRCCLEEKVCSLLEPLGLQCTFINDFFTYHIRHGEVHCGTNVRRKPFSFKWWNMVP
Description: Experimental Example 1: Assay of Enzyme-Inhibiting Activity of Compound
Sample: The compound disclosed herein prepared according to exemplary methods.
Peptidylarginine deiminase 4 (PAD4): Cayman, Cat. No. 10500, Lot. No. 0519694;
Carboxyfluorescein-labeled peptide (Peptide FAM-AcH4 (1-5)): GL Biochem, Cat. No. 0200046, Lot. No. P161110-TL545976;
An appropriate amount of the compound to be assayed was dissolved in DMSO to 10 mM. An appropriate amount of 10 mM mother liquor of the compound to be assayed was diluted to 1.5 mM with DMSO, and the solution was then serially diluted 3-fold with DMSO to give 50× concentrations of gradient compound solutions. Finally, 10-fold dilution was carried out with reaction buffer (an aqueous solution of 100 mM HEPES (2-[4-(2-hydroxyethyl)piperazin-1-yl]ethanesulfonic acid) containing 0.01% v/v Triton, pH 8.0) to give 5× concentrations of gradient compound solutions (150 μM, 50 μM, 16.667 μM, 5.556 μM, 1.852 μM, 0.617 μM, 0.206 μM, 0.069 μM, 0.023 μM, and 0.008 μM).
1) Reaction buffer: aqueous solution of 100 mM HEPES (2-[4-(2-hydroxyethyl)piperazin-1-yl]ethanesulfonic acid) containing 0.01% v/v Triton, pH 8.0;
2) Stop solution: aqueous solution of 100 mM HEPES (2-[4-(2-hydroxyethyl)piperazin-1-yl]ethanesulfonic acid) containing 0.015% w/v Brij-35, 0.2% v/v Coating Reagent (coating solution) #3 (PE, part no. 760050) and 50 mM EDTA, pH 8.0;
3) 2.5× enzyme solution: An appropriate amount of PAD4 was diluted to 2.5× (final concentration: 10 nM) with reaction buffer;
4) 2.5× polypeptide solution: An appropriate amount of carboxyfluorescein -labeled peptide (FAM-AcH4(1-5) peptide) and CaCl2) solution was diluted to 2.5× (the final concentration of polypeptide: 5 μM, the final concentration of Ca^2+: 0.1 mM) with reaction buffer.
5 μL of 5× compound solutions or solvents with different concentrations were added to a 384-well plate, 10 μL of 2.5× enzyme solution was then added, and the plate was incubated at room temperature for 10 min. 10 μL of 2.5× polypeptide solution was then added to each well, and the plate was incubated at 28° C. for a certain period of time. 25 μL of stop solution was added to stop reaction. Caliper was used for detection. The inhibition rate was calculated according to the following formula:
Inhibition percentage=(max−transformation)/(max−min)*100.
“max” denotes DMSO control; and “min” denotes low control.

[3] = Liver microsomal stability in human; type: in vitro ADME; conditions: human liver microsomes, 0.5 mg protein/mL, 1 μM compound, 37° C.
Description: as §1, §2, §3, §4, §5, §6

[4] = Pharmacokinetics (PK) of the compound in rats; type: in vivo; conditions: rat, plasma, SD rats
Description: Experimental Example 3: Pharmacokinetics (PK) of the Compound in Rats
The test compound was dissolved in a mixture of 5% v/v DMSO+20% v/v (30% v/v solutol (polyethylene glycol-15 hydroxystearate purchased from BASF, batch no. 84773247G0))+75% v/v brine to prepare a solution, which was then administered to SD rats by oral gavage at a dose of 5.0 mg/kg. Blood samples were collected at 15 min, 30 min, 1 h, 2 h, 4 h, 6 h, 8 h and 24 h.
The test compound was dissolved in a mixture of 5% v/v DMSO+20% v/v (30% v/v solutol)+75% v/v brine to prepare a solution, which was administered to SD rats by intravenous bolus at a dose of 1 mg/kg. Blood samples were collected at 5 min, 15 min, 30 min, 1 h, 2 h, 4 h, 6 h, 8 h and 24 h.
The animals were fixed, with tails warmed in a water bath 10 min before each sampling time point. About 100 μL of blood was collected via the tail vein, and the blood samples were collected in anticoagulation tubes containing EDTA-K2. The blood samples were centrifuged at 8,000 rpm for 6 min at 4° C. to give plasma samples within 30 min after collection. The plasma samples were stored in a refrigerator at −80° C. before test.
The sample was taken out from the −80° C. refrigerator, and vortexed for 5 min after naturally thawed at room temperature. 20 μL of plasma sample was pipetted into a 1.5 mL centrifuge tube, and 200 μL of 100 ng/mL internal standard working solution (a solution of tolbutamide in methanol) was added. The resulting mixture was mixed, vortexed for 5 min, and then centrifuged at 12,000 rpm for 5 min. 50 μL of the supernatant was pipetted into a 96-well plate with 150 μL of water per well, and the plate was vortexed for 5 min before LC-MS/MS analysis.
The concentration was calculated by Analyst 1.6.3 from AB Sciex. Parameters such as mean, standard deviation and coefficient of variation (excluding those output directly by Analyst 1.6.3) were calculated by Microsoft Excel. PK parameters were calculated by Pharsight Phoenix 6.1 software NCA (Tmax was in median).

CCn1c(-c2nc3cc(C(=O)N4CCC[C@@H](N)C4)cc(OC)c3n2C)cc2ccoc21 [Compound 4, (R)-(3-aminopiperidin-1-yl)(2-(6-ethyl-6H-furo[2,3-b]pyrrol-5-yl)-7-methoxy-1-methyl-1H-benzo[d]imidazol-5-yl)methanone]
half-life at 1 μM [1]: 5.5 h
IC50 [2]: 350 nM
half-life at 1 μM [3]: 11.6 h
microsomal CLint at 1 μM [3]: 2 µL/min/mg

COc1cc(C(=O)N2CCC[C@@H](N)C2)cc2nc(-c3cc4ccoc4n3CC3CC3)n(C)c12 [Compound 24, (R)-(3-aminopiperidin-1-yl)(2-(6-(cyclopropylmethyl)-6H-furo[2,3-b]pyrrol-5-yl)-7-methoxy-1-methyl-1H-benzo[d]imidazol-5-yl)methanone]
IC50 [2]: 54 nM

CCn1c(-c2nc3cc(C(=O)N4CCC[C@@H](N)C4)cc(OC)c3n2C)cc2cccnc21 [Compound GSK199, reference compound]
half-life at 1 μM [1]: 12.8 h
microsomal CLint at 1 μM [1]: 1.8 µL/min/mg
IC50 [2]: 140 nM
bioavailability ([4]; IV 1 mg/kg, PO 5 mg/kg, n = 3, read-out: F (absolute bioavailability)): 33.1%
AUC(0-t) ([4]; IV 1 mg/kg, n = 3, read-out: AUClast iv (area under concentration-time curve 0-24 h)): 330 ng·h/mL
clearance ([4]; IV 1 mg/kg, n = 3, read-out: Cl_obs iv (clearance) (converted)): 48.2 mL/min/kg
Vd ([4]; IV 1 mg/kg, n = 3, read-out: Vz_obs iv (apparent volume of distribution)): 6.75 L/kg
half-life ([4]; IV 1 mg/kg, n = 3, read-out: tz1/2 iv (terminal half-life) (converted)): 1.63 h
Tmax ([4]; PO 5 mg/kg, n = 3, median, read-out: Tmax po (time to maximum plasma concentration)): 4 h
AUC(0-t) ([4]; PO 5 mg/kg, n = 3, read-out: AUClast po (area under concentration-time curve 0-24 h)): 496 ng·h/mL
half-life ([4]; PO 5 mg/kg, n = 3, read-out: tz1/2 po (terminal half-life) (converted)): 2.23 h
half-life at 1 μM [3]: 4.45 h
microsomal CLint at 1 μM [3]: 5.2 µL/min/mg
